Source: ChEMBL document CHEMBL1201862, “PubChem BioAssay data set” (2004)
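Five concentrations, 48 hours, 96-well plates. Here, GI50 denotes the concentration required for 50% inhibition of growth.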 Active and inactive are the calls of the source. Cut-off read from the data, not from the text of the source: active = GI50 up to about 1.1 µM and inactive = higher.

Key:
Assay in all cases: inhibition of tumour cell growth, NCI panel, 48 h
HOP-18 = tested on: HOP-18
DMS-114 = tested on: DMS-114
KM-20L2 = tested on: KM-20L2
DMS-273 = tested on: DMS-273
M19-MEL = tested on: M19-MEL
DLD-1 = tested on: DLD-1
XF498 = tested on: XF498
SNB-78 = tested on: SNB-78
RXF 631 = tested on: RXF 631

Structure (SMILES): Oc1ccc2ccccc2c1/N=N/c1ccc(F)cc1
- GI50 (HOP-18): > 100 µM (inactive)
- GI50 (DMS-114): > 100 µM (inactive)
- GI50 (KM-20L2): > 100 µM (inactive)
- GI50 (DMS-273): > 100 µM (inactive)
- GI50 (M19-MEL): > 100 µM (inactive)

Structure (SMILES): CN(Cc1cnc2nc(N)nc(N)c2n1)c1ccc(C(=O)NC(CCC(=O)O)C(=O)O)c2ccccc12 (centres undefined)
- GI50 (HOP-18): > 100 µM (inactive)
- GI50 (DMS-114): 0.000847 µM (active)
- GI50 (DLD-1): 0.01 µM (active)
- GI50 (KM-20L2): 0.01 µM (active)
- GI50 (DMS-273): 0.01 µM (active)
- GI50 (XF498): > 100 µM (inactive)
- GI50 (M19-MEL): 0.01 µM (active)
- GI50 (SNB-78): > 65 µM (inactive)

Structure (SMILES): CCOP(=O)(OCC)OC(C#N)c1ccc(-c2ccccc2)cc1 (centres undefined)
- GI50 (HOP-18): 27.7 µM (inactive)
- GI50 (DMS-114): 15 µM (inactive)
- GI50 (DLD-1): 18.4 µM (inactive)
- GI50 (KM-20L2): 41.3 µM (inactive)
- GI50 (DMS-273): 14.4 µM (inactive)
- GI50 (XF498): 23.9 µM (inactive)
- GI50 (M19-MEL): 21.9 µM (inactive)
- GI50 (SNB-78): 33 µM (inactive)

Structure (SMILES): CC(=O)OC1CC2(c3ccccc3)C(=O)c3ccccc3N2O1 (centres undefined)
- GI50 (HOP-18): > 100 µM (inactive)
- GI50 (DMS-114): > 100 µM (inactive)
- GI50 (DLD-1): > 100 µM (inactive)
- GI50 (KM-20L2): > 100 µM (inactive)
- GI50 (DMS-273): > 100 µM (inactive)
- GI50 (XF498): > 100 µM (inactive)
- GI50 (M19-MEL): > 100 µM (inactive)
- GI50 (SNB-78): > 100 µM (inactive)

Structure (SMILES): CNS(=O)(=O)NNS(=O)(=O)c1ccc(OC)cc1
- GI50 (DMS-114): > 100 µM (inactive)
- GI50 (DLD-1): > 100 µM (inactive)
- GI50 (KM-20L2): > 100 µM (inactive)
- GI50 (DMS-273): > 100 µM (inactive)
- GI50 (RXF 631): > 100 µM (inactive)
- GI50 (XF498): > 100 µM (inactive)
- GI50 (M19-MEL): > 100 µM (inactive)

Structure (SMILES): c1ccc(SC2(Sc3ccccc3)CCCC2)cc1
- GI50 (DMS-114): > 100 µM (inactive)
- GI50 (DLD-1): > 100 µM (inactive)
- GI50 (KM-20L2): > 100 µM (inactive)
- GI50 (DMS-273): > 100 µM (inactive)
- GI50 (RXF 631): > 100 µM (inactive)
- GI50 (XF498): > 100 µM (inactive)
- GI50 (M19-MEL): > 100 µM (inactive)
- GI50 (SNB-78): > 100 µM (inactive)

Structure (SMILES): O=C(CCC(=O)Nc1ccc(Cl)cc1)CC(=O)c1ccc(F)cc1
- GI50 (DLD-1): > 100 µM (inactive)
- GI50 (KM-20L2): > 100 µM (inactive)
- GI50 (DMS-273): > 100 µM (inactive)
- GI50 (XF498): > 100 µM (inactive)
- GI50 (SNB-78): > 100 µM (inactive)

Structure (SMILES): CC1=C(C(=O)O)N2C(=O)[C@@H](NC(=O)C(c3ccccc3)N3CSC(=S)N(C(C)C)C3)C2SC1 (some centres undefined)
- GI50 (HOP-18): > 100 µM (inactive)
- GI50 (DLD-1): > 100 µM (inactive)
- GI50 (KM-20L2): > 100 µM (inactive)
- GI50 (DMS-273): > 100 µM (inactive)
- GI50 (XF498): > 100 µM (inactive)
- GI50 (M19-MEL): > 100 µM (inactive)
- GI50 (SNB-78): > 100 µM (inactive)

Structure (SMILES): CC(C)(C)C(=O)C1CC(=O)c2ccccc2C1=O (centres undefined)
- GI50 (HOP-18): 37.5 µM (inactive)
- GI50 (DMS-114): 33.9 µM (inactive)
- GI50 (DLD-1): 30.4 µM (inactive)
- GI50 (KM-20L2): 38 µM (inactive)
- GI50 (RXF 631): 36.7 µM (inactive)
- GI50 (XF498): 34.4 µM (inactive)
- GI50 (M19-MEL): 32.9 µM (inactive)
- GI50 (SNB-78): 27.5 µM (inactive)

Structure (SMILES): N#CC(C#N)c1ccc(C(=O)N2CCC[C@H]2CO)cc1
- GI50 (HOP-18): > 100 µM (inactive)
- GI50 (DMS-114): > 100 µM (inactive)
- GI50 (DLD-1): > 100 µM (inactive)
- GI50 (KM-20L2): > 100 µM (inactive)
- GI50 (DMS-273): > 100 µM (inactive)
- GI50 (RXF 631): > 100 µM (inactive)
- GI50 (M19-MEL): > 100 µM (inactive)

Structure (SMILES): C#CCC(O)c1ccccc1C(O)CC#C (centres undefined)
- GI50 (DMS-114): > 100 µM (inactive)
- GI50 (DLD-1): > 100 µM (inactive)
- GI50 (KM-20L2): > 100 µM (inactive)
- GI50 (DMS-273): > 100 µM (inactive)
- GI50 (M19-MEL): > 100 µM (inactive)
- GI50 (SNB-78): 77.8 µM (inactive)

Structure (SMILES): N#Cc1cc([N+](=O)[O-])ccc1NC(=O)C(=O)C(C(=O)/C=C/c1ccccc1)C1OC(=O)c2ccccc21 (centres undefined)
- GI50 (HOP-18): > 100 µM (inactive)
- GI50 (DMS-114): > 100 µM (inactive)
- GI50 (DLD-1): > 100 µM (inactive)
- GI50 (KM-20L2): > 100 µM (inactive)
- GI50 (RXF 631): > 100 µM (inactive)
- GI50 (XF498): > 100 µM (inactive)
- GI50 (M19-MEL): > 100 µM (inactive)
- GI50 (SNB-78): > 100 µM (inactive)

Structure (SMILES): COc1cc2ccc3c4ccccc4cnc3c2cc1OC
- GI50 (HOP-18): > 100 µM (inactive)
- GI50 (DLD-1): > 100 µM (inactive)
- GI50 (KM-20L2): > 100 µM (inactive)
- GI50 (RXF 631): > 100 µM (inactive)
- GI50 (M19-MEL): > 100 µM (inactive)
- GI50 (SNB-78): > 100 µM (inactive)

Structure (SMILES): C/C(=N/NC(=O)C[N+](C)(C)C)C(CN(C)C)C(=O)Nc1ccccc1 (centres undefined)
- GI50 (HOP-18): > 100 µM (inactive)
- GI50 (DMS-114): > 100 µM (inactive)
- GI50 (DLD-1): > 100 µM (inactive)
- GI50 (KM-20L2): > 100 µM (inactive)
- GI50 (DMS-273): > 100 µM (inactive)
- GI50 (XF498): > 100 µM (inactive)
- GI50 (M19-MEL): > 100 µM (inactive)

Structure (SMILES): Cc1cc(C)nc(NS(=O)(=O)c2ccc(Nc3c4ccccc4nc4c(C(=O)Nc5ccc(S(=O)(=O)N=C(N)N)cc5)cccc34)cc2)n1
- GI50 (HOP-18): > 100 µM (inactive)
- GI50 (DMS-114): > 100 µM (inactive)
- GI50 (DLD-1): > 100 µM (inactive)
- GI50 (KM-20L2): > 100 µM (inactive)
- GI50 (DMS-273): > 100 µM (inactive)
- GI50 (RXF 631): > 100 µM (inactive)
- GI50 (M19-MEL): > 100 µM (inactive)
- GI50 (SNB-78): > 100 µM (inactive)

Structure (SMILES): N#CC(C(=O)C(N)=O)c1ccccc1Cl (centres undefined)
- GI50 (HOP-18): > 100 µM (inactive)
- GI50 (DMS-114): > 100 µM (inactive)
- GI50 (DLD-1): > 100 µM (inactive)
- GI50 (KM-20L2): > 100 µM (inactive)
- GI50 (DMS-273): > 100 µM (inactive)
- GI50 (RXF 631): > 100 µM (inactive)
- GI50 (XF498): > 100 µM (inactive)
- GI50 (M19-MEL): > 100 µM (inactive)

Structure (SMILES): COCCN1C2=CCCCC2=Nc2c1nc(N)[nH]c2=O
- GI50 (HOP-18): > 100 µM (inactive)
- GI50 (DMS-114): > 100 µM (inactive)
- GI50 (DLD-1): > 100 µM (inactive)
- GI50 (KM-20L2): > 100 µM (inactive)
- GI50 (DMS-273): > 100 µM (inactive)
- GI50 (RXF 631): > 100 µM (inactive)
- GI50 (XF498): > 100 µM (inactive)
- GI50 (M19-MEL): > 100 µM (inactive)
- GI50 (SNB-78): > 100 µM (inactive)

Structure (SMILES): CC1(C)COC(c2cccnc2/C=N/O)=N1
- GI50 (HOP-18): > 100 µM (inactive)
- GI50 (DLD-1): > 100 µM (inactive)
- GI50 (KM-20L2): > 100 µM (inactive)
- GI50 (DMS-273): > 100 µM (inactive)
- GI50 (RXF 631): > 100 µM (inactive)
- GI50 (XF498): > 100 µM (inactive)
- GI50 (M19-MEL): > 100 µM (inactive)
- GI50 (SNB-78): > 100 µM (inactive)

Structure (SMILES): Cc1cc(N(CCC#N)CCC#N)ccc1/C=C1N=C(/C=C\c2ccccc2)N(NC(=O)CC(=O)Nc2ccccc2Cl)C\1=O
- GI50 (HOP-18): > 100 µM (inactive)
- GI50 (DMS-114): > 100 µM (inactive)
- GI50 (DLD-1): > 100 µM (inactive)
- GI50 (KM-20L2): > 100 µM (inactive)
- GI50 (RXF 631): > 100 µM (inactive)
- GI50 (M19-MEL): > 100 µM (inactive)

Structure (SMILES): CCCC1N2CCCCC2[C@@H]2c3[nH]c4ccccc4c3CCN12 (some centres undefined)
- GI50 (HOP-18): > 100 µM (inactive)
- GI50 (DMS-114): > 100 µM (inactive)
- GI50 (DLD-1): > 100 µM (inactive)
- GI50 (KM-20L2): > 100 µM (inactive)
- GI50 (DMS-273): > 100 µM (inactive)
- GI50 (XF498): > 100 µM (inactive)
- GI50 (M19-MEL): > 100 µM (inactive)
- GI50 (SNB-78): 53.8 µM (inactive)

Structure (SMILES): CCC(C)(C)C(=O)O[C@H]1C[C@@H](C)C=C2C=C[C@H](C)[C@H](CC[C@@H]3C[C@@H](O)CC(=O)O3)[C@H]21 [SIMVASTATIN]
- GI50 (HOP-18): > 30 µM (inactive)
- GI50 (DMS-114): 23.7 µM (inactive)
- GI50 (DLD-1): > 30 µM (inactive)
- GI50 (KM-20L2): 12.3 µM (inactive)
- GI50 (DMS-273): 2.88 µM (inactive)
- GI50 (RXF 631): 0.55 µM (active)
- GI50 (XF498): > 30 µM (inactive)
- GI50 (M19-MEL): 1.56 µM (inactive)
- GI50 (SNB-78): > 30 µM (inactive)
